Test results: patent US9994551B2, “Pyridazine derivatives as RORc modulators” (Genentech, Inc., priority 2015, dated 2018)

Target: T1, RORc ligand binding domain (Homo sapiens, UniProt P51449)
T1 construct: host or cells: E. coli
T1 sequence (P51449 269-508 limits assumed): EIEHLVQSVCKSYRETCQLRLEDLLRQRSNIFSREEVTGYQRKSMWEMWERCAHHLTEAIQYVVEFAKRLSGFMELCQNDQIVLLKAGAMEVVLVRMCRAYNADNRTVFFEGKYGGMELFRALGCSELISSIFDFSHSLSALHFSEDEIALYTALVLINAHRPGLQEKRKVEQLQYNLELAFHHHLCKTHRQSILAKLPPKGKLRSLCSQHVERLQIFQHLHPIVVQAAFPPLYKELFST
Assay: In vitro RORc ligand binding assay (25-[3H]hydroxycholesterol displacement, filter binding)

Row | SMILES | IC50 [nM]
1 | CC1(C)[C@H]2CC[C@]1([C@H]1CN(C(=O)c3cnco3)CCO1)c1nnc(-c3c(F)cccc3F)cc12 [Compound 94, ((S)-2-((5R,8R)-3-(2,6-difluorophenyl)-9,9-dimethyl-5,6,7,8-tetrahydro-5,8-methanocinnolin-8-yl)morpholino)(oxazol-5-yl)methanone] | 76.3
2 | CC[C@@H](O[C@@]12CC[C@@H](c3cc(-c4c(F)cccc4F)nnc31)C2(C)C)C(=O)N(C)C [Compound 36, (R)-2-(((5S,8R)-3-(2,6-difluorophenyl)-9,9-dimethyl-5,6,7,8-tetrahydro-5,8-methanocinnolin-8-yl)oxy)-N,N-dimethylbutanamide] | 54.3
3 | CC1(C)[C@H]2CC[C@]1(Oc1ccccn1)c1nnc(-c3c(F)cccc3F)cc12 [Compound 12, (5S,8R)-3-(2,6-difluorophenyl)-9,9-dimethyl-8-(pyridin-2-yloxy)-5,6,7,8-tetrahydro-5,8-methanocinnoline] | 42.5
4 | CC1(C)[C@H]2CC[C@]1([C@@H]1CN(C3=NC(CO)CO3)CCO1)c1nnc(-c3c(F)cccc3F)cc12 (stereo in doubt) [Compound 140, [2-[2-[5-(2,6-difluorophenyl)-11,11-dimethyl-3,4-diazatricyclo[6.2.1.02,7]undeca-2,4,6-trien-1-yl]morpholin-4-yl]-4,5-dihydrooxazol-4-yl]methanol] | 7.6
5 | CC1(C)[C@H]2CC[C@]1([C@H]1CN(C(=O)c3ccc(Cl)nn3)CCO1)c1nnc(-c3c(F)cccc3F)cc12 [Compound 124, (6-chloropyridazin-3-yl)-[2-[5-(2,6-difluorophenyl)-11,11-dimethyl-3,4-diazatricyclo[6.2.1.02,7]undeca-2,4,6-trien-1-yl]morpholin-4-yl]methanone] | 140
6 | CCNC(=O)N1CCC[C@H]([C@@]23CC[C@@H](c4cc(-c5c(F)cccc5F)nnc42)C3(C)C)C1 [Compound 136, 3-[5-(2,6-difluorophenyl)-11,11-dimethyl-3,4-diazatricyclo[6.2.1.02,7]undeca-2,4,6-trien-1-yl]-N-ethyl-piperidine-1-carboxamide] | 29
7 | CC1(C)C2CCC1(C1CCCN(C(=O)c3cnoc3)C1)c1nnc(-c3c(F)cccc3F)cc12 (centres unmarked) [Compound 160, [3-[5-(2,6-difluorophenyl)-11,11-dimethyl-3,4-diazatricyclo[6.2.1.02,7]undeca-2,4,6-trien-1-yl]-1-piperidyl]-isoxazol-4-yl-methanone] | 200
8 | CC1(C)[C@H]2CC[C@]1([C@@H]1CN(C(=O)c3c[nH]c(=O)cn3)CCO1)c1nnc(-c3c(F)cccc3F)cc12 [Compound 118, 5-[2-[5-(2,6-difluorophenyl)-11,11-dimethyl-3,4-diazatricyclo[6.2.1.02,7]undeca-2,4,6-trien-1-yl]morpholine-4-carbonyl]-1H-pyrazin-2-one] | 11
9 | CC[C@@H](O[C@@]12CC[C@@H](c3cc(-c4c(F)cccc4F)nnc31)C2(C)C)C(=O)NC[C@@H](O)CO [Compound 54, (R)-2-(((5S,8R)-3-(2,6-difluorophenyl)-9,9-dimethyl-5,6,7,8-tetrahydro-5,8-methanocinnolin-8-yl)oxy)-N-((R)-2,3-dihydroxypropyl)butanamide] | 75.4
10 | CC1(C)[C@H]2CC[C@]1(c1cccc3nccn13)c1nnc(-c3c(F)cccc3F)cc12 [Compound 107, (5R,8S)-3-(2,6-difluorophenyl)-8-(imidazo[1,2-a]pyridin-5-yl)-9,9-dimethyl-5,6,7,8-tetrahydro-5,8-methanocinnoline] | 91.8
11 | CC1(C)[C@H]2CC[C@]1([C@H]1CN(C(=O)C(O)CO)CCO1)c1nnc(-c3c(F)cccc3F)cc12 (stereo partly drawn) [Compound 76, 1-((S)-2-((5R,8R)-3-(2,6-difluorophenyl)-9,9-dimethyl-5,6,7,8-tetrahydro-5,8-methanocinnolin-8-yl)morpholino)-2,3-dihydroxypropan-1-one] | 277
12 | CC1(C)[C@H]2CC[C@]1([C@H]1CCCN(C(=O)c3cccnn3)C1)c1nnc(-c3c(F)cccc3F)cc12 [Compound 168, [3-[5-(2,6-difluorophenyl)-11,11-dimethyl-3,4-diazatricyclo[6.2.1.02,7]undeca-2,4,6-trien-1-yl]-1-piperidyl]-pyridazin-3-yl-methanone] | 7.1
13 | CC[C@@H](O[C@@]12CC[C@@H](c3cc(-c4c(F)cccc4F)nnc31)C2(C)C)C(=O)N1CCCOCC1 [Compound 101, (R)-2-(((5S,8R)-3-(2,6-difluorophenyl)-9,9-dimethyl-5,6,7,8-tetrahydro-5,8-methanocinnolin-8-yl)oxy)-1-(1,4-oxazepan-4-yl)butan-1-one] | 148

Now from value to molecule:

Row | IC50 [nM] | SMILES
14 | 34.7 | CCNC(=O)[C@H](CC)O[C@@]12CC[C@@H](c3cc(-c4c(F)cccc4F)nnc31)C2(C)C [Compound 19, (S)-2-(((5S,8R)-3-(2,6-difluorophenyl)-9,9-dimethyl-5,6,7,8-tetrahydro-5,8-methanocinnolin-8-yl)oxy)-N-ethylbutanamide]
15 | 12 | CNS(=O)(=O)N1CCC[C@H]([C@@]23CC[C@@H](c4cc(-c5c(F)cccc5F)nnc42)C3(C)C)C1 [Compound 138, 3-[5-(2,6-difluorophenyl)-11,11-dimethyl-3,4-diazatricyclo[6.2.1.02,7]undeca-2,4,6-trien-1-yl]-N-methyl-piperidine-1-sulfonamide]
16 | 66.2 | CC1(C)[C@H]2CC[C@]1([C@H]1CN(C(N)=O)CCO1)c1nnc(-c3c(F)cccc3F)cc12 [Compound 81, (S)-2-((5R,8R)-3-(2,6-difluorophenyl)-9,9-dimethyl-5,6,7,8-tetrahydro-5,8-methanocinnolin-8-yl)morpholine-4-carboxamide]
17 | 6.5 | CC1(C)[C@H]2CC[C@]1([C@H]1CCCN(C(=O)NC3(CO)COC3)C1)c1nnc(-c3c(F)cccc3F)cc12 [Compound 171]
18 | 1010 | CCNC(=O)[C@@H](CC)O[C@@]12CC[C@@H](c3cc(-c4c(F)cccc4F)nnc31)C2(C)C [Compound 22, (R)-2-(((5S,8R)-3-(2,6-difluorophenyl)-9,9-dimethyl-5,6,7,8-tetrahydro-5,8-methanocinnolin-8-yl)oxy)-N-ethylbutanamide]
19 | 74 | CC1(C)[C@H]2CC[C@]1(C1CCC(=O)NC1)c1nnc(-c3c(F)cccc3F)cc12 (some centres unmarked) [Compound 116, 5-[5-(2,6-difluorophenyl)-11,11-dimethyl-3,4-diazatricyclo[6.2.1.02,7]undeca-2,4,6-trien-1-yl]piperidin-2-one]
20 | 24.1 | CC[C@@H](O[C@@]12CC[C@@H](c3cc(-c4c(F)cccc4F)nnc31)C2(C)C)c1nnc(C)o1 [Compound 20, 2-((R)-1-(((5S,8R)-3-(2,6-difluorophenyl)-9,9-dimethyl-5,6,7,8-tetrahydro-5,8-methanocinnolin-8-yl)oxy)propyl)-5-methyl-1,3,4-oxadiazole]
21 | 340 | CC1(C)[C@H]2CC[C@]1(Oc1nccnc1C(=O)NCCO)c1nnc(-c3c(F)cccc3F)cc12 [Compound 18, 3-(((5S,8R)-3-(2,6-difluorophenyl)-9,9-dimethyl-5,6,7,8-tetrahydro-5,8-methanocinnolin-8-yl)oxy)-N-(2-hydroxyethyl)pyrazine-2-carboxamide]
22 | 9.5 | CC(CO)NC(=O)N1CCO[C@H]([C@@]23CC[C@@H](c4cc(-c5c(F)cccc5F)nnc42)C3(C)C)C1 (stereo in doubt) [Compound 141, 2-[5-(2,6-difluorophenyl)-11,11-dimethyl-3,4-diazatricyclo[6.2.1.02,7]undeca-2,4,6-trien-1-yl]-N-(2-hydroxy-1-methyl-ethyl)morpholine-4-carboxamide]
23 | 215 | CC1(C)[C@H]2CC[C@]1([C@H]1CCC(=O)NC1)c1nnc(-c3c(F)cccc3F)cc12 [Compound 92, (R)-5-((5R,8R)-3-(2,6-difluorophenyl)-9,9-dimethyl-5,6,7,8-tetrahydro-5,8-methanocinnolin-8-yl)piperidin-2-one]
24 | 40 | CC1(C)[C@H]2CC[C@]1([C@H]1CCCN(c3cccnn3)C1)c1nnc(-c3c(F)cccc3F)cc12 [Compound 169, 5-(2,6-difluorophenyl)-11,11-dimethyl-1-(1-pyridazin-3-yl-3-piperidyl)-3,4-diazatricyclo[6.2.1.02,7]undeca-2,4,6-triene]
25 | 515 | CC1(C)[C@H]2CC[C@]1(OCc1ncccn1)c1nnc(-c3c(F)cccc3F)cc12 [Compound 13, (5S,8R)-3-(2,6-difluorophenyl)-9,9-dimethyl-8-(pyrimidin-2-ylmethoxy)-5,6,7,8-tetrahydro-5,8-methanocinnoline]
26 | 12 | CC[C@@H](O[C@@]12CC[C@@H](c3cc(-c4c(F)cccc4F)nnc31)C2(C)C)C(=O)OC [Compound 112, methyl (2R)-2-[[(1R,8S)-5-(2,6-difluorophenyl)-11,11-dimethyl-3,4-diazatricyclo[6.2.1.02,7]undeca-2,4,6-trien-1-yl]oxy]butanoate]
27 | 3.1 | CC(C)(C)OC(=O)N1CCNC[C@H]1[C@@]12CC[C@@H](c3cc(-c4c(F)cccc4F)nnc31)C2(C)C [Compound 115, tert-butyl 2-[5-(2,6-difluorophenyl)-11,11-dimethyl-3,4-diazatricyclo[6.2.1.02,7]undeca-2,4,6-trien-1-yl]piperazine-1-carboxylate]
28 | 13 | Cc1n[nH]c(C(=O)N2CCO[C@@H]([C@@]34CC[C@@H](c5cc(-c6c(F)cccc6F)nnc53)C4(C)C)C2)n1 [Compound 117, [2-[5-(2,6-difluorophenyl)-11,11-dimethyl-3,4-diazatricyclo[6.2.1.02,7]undeca-2,4,6-trien-1-yl]morpholin-4-yl]-(3-methyl-1H-1,2,4-triazol-5-yl)methanone]
29 | 9.1 | CC(=O)N1CCN(C)C[C@@H]1[C@@]12CC[C@@H](c3cc(-c4c(F)cccc4F)nnc31)C2(C)C [Compound 182, 1-[2-[5-(2,6-difluorophenyl)-11,11-dimethyl-3,4-diazatricyclo[6.2.1.02,7]undeca-2,4,6-trien-1-yl]-4-methyl-piperazin-1-yl]ethanone]
